# Measured values published in ChEMBL document CHEMBL3407376, “Identification of novel class of falcipain-2 inhibitors as potential antimalarial agents” (Bioorg Med Chem, 2015).
# Calls of active or inactive are those of the source. No cut-off for these calls is given here.
# Experiments:
# Falcipain 2 = target: T1, Falcipain 2 (Plasmodium falciparum, UniProt Q9N6S8); assay: Inhibition of Plasmodium falciparum recombinant falcipain-2 using ZFR-AMC as substrate after 30 mins by fluorometric assay
# T1 sequence (Q9N6S8 whole entry): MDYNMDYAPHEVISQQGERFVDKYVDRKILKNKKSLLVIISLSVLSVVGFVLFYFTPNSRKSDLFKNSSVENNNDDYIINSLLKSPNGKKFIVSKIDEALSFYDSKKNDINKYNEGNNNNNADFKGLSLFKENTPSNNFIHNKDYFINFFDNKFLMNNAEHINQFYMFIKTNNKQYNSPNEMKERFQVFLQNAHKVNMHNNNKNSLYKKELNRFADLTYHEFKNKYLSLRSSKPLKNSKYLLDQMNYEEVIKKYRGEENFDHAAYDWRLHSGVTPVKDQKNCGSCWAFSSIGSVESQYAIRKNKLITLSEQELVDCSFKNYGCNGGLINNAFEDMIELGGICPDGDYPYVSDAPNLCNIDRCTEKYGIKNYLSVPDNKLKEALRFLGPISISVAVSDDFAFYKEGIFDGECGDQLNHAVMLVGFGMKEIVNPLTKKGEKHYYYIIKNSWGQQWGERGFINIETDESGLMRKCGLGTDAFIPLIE
# Plasmodium falciparum [1] = assay: Antimalarial activity against Plasmodium falciparum 3D7 infected in human erythrocytes after 48 hrs by SYBR green assay; type: functional, organism-based
# Plasmodium falciparum [2] = assay: Antimalarial activity against asexual stage Plasmodium falciparum assessed as abnormal parasites after 60 hrs relative to control; type: functional, organism-based
# Plasmodium falciparum [3] = assay: Selectivity ratio of EC50 for Plasmodium falciparum 3D7 to EC50 for Plasmodium falciparum Dd2; type: functional
# Plasmodium falciparum [4] = assay: Antimalarial activity against Plasmodium falciparum Dd2 infected in human erythrocytes after 48 hrs by SYBR green assay; type: functional; details: Dd2, 48 h
# Plasmodium falciparum [5] = assay: Antimalarial activity against Plasmodium falciparum isolate MCamp infected in human erythrocytes after 48 hrs by SYBR green assay; type: functional, organism-based
# Plasmodium falciparum [6] = assay: Antimalarial activity against asexual stage Plasmodium falciparum assessed as growth arrest at trophozoite stage after 32 to 60 hrs relative to control; type: functional, organism-based
# CHO = assay: Cytotoxicity against CHO cells after 24 hrs by WST-1 assay; type: cell-based; details: Cricetulus griseus
# [7] = Selectivity ratio of IC50 for CHO cells to IC50 for Plasmodium falciparum; type: ADME, cell-based; details: hamster, read-out: Ratio IC50
# Plasmodium falciparum [8] = assay: Selectivity ratio of EC50 for Plasmodium falciparum Dd2 to EC50 for Plasmodium falciparum 3D7; type: functional
# Plasmodium falciparum [9] = assay: Selectivity ratio of EC50 for Plasmodium falciparum isolate MCamp to EC50 for Plasmodium falciparum 3D7; type: functional
# Plasmodium falciparum [10] = assay: Antimalarial activity against asexual stage Plasmodium falciparum assessed as morphological abnormalities after 32 to 46 hrs relative to control; type: functional, organism-based
# Plasmodium falciparum [11] = assay: Antimalarial activity against asexual stage Plasmodium falciparum assessed as abnormal food vacuole after 32 to 46 hrs relative to control; type: functional, organism-based
# [12] = Plasmodium falciparum, 3D7, 48 h, read-out: IC50
SMILES,Ki (Falcipain 2) [nM],IC50 (Plasmodium falciparum [1]; [12]) [µM],IC50 (CHO) [µM],also measured
CC(C)C[C@H](NC(=O)[C@H](CC(C)C)NC(=O)N1CCOCC1)C(=O)N[C@@H](Cc1c[nH]c2ccccc12)C(=O)N1CCN=C1COc1ccc(F)cc1,1800,> 5,–,–
CC(C)C[C@H](NC(=O)CN1CCC(O)CC1)C(=O)N[C@@H](CC(C)C)C(=O)N[C@@H](Cc1c[nH]c2ccccc12)C(=O)N1CCN=C1COc1ccc(F)cc1,13600,10,–,–
CC(C)C[C@H](NC(=O)[C@H](CC(C)C)NC(=O)N1CCCCC1)C(=O)N[C@H](C(=O)N1CCN=C1COc1ccc(F)cc1)c1ccccc1,800,5.2,–,Activity (Plasmodium falciparum [2]): Active; Ratio EC50 (Plasmodium falciparum [3]): 3; EC50 (Plasmodium falciparum [4]): 1900 nM; EC50 (Plasmodium falciparum [5]): 1.2 µM; Activity (Plasmodium falciparum [6]): Active
CC(C)C[C@H](NC(=O)CN1CCC(CCO)CC1)C(=O)N[C@@H](CC(C)C)C(=O)N[C@H](C(=O)N1CCC[C@H]1COc1ccc(F)cc1)c1ccccc1,> 10000,–,–,IC50 (Plasmodium falciparum [1]): Not Active
CC(C)C[C@H](NC(=O)[C@H](CC(C)C)NC(=O)N1CCCCC1)C(=O)N[C@@H](Cc1c[nH]c2ccccc12)C(=O)N1CCC[C@H]1COc1ccc(F)cc1,400,9.7,–,–
CC(C)C[C@H](NC(=O)CN1CCC(CCO)CC1)C(=O)N[C@@H](CC(C)C)C(=O)N[C@@H](Cc1c[nH]c2ccccc12)C(=O)N1CCC[C@H]1COc1ccc(F)cc1,3290,6.7,–,–
CC(C)C[C@H](NC(=O)[C@H](CC(C)C)NC(=O)N1CCCCC1)C(=O)N[C@@H](Cc1ccccc1)C(=O)NNc1ccccc1,800,14.2,99,–
CC(C)C[C@H](NC(=O)CN1CCC(CCO)CC1)C(=O)N[C@@H](CC(C)C)C(=O)N[C@@H](Cc1c[nH]c2ccccc12)C(=O)N1CCN=C1COc1ccc(F)cc1,6200,18.8,–,–
COc1ccc(OC[C@@H]2CCCN2C(=O)[C@H](Cc2ccccc2)NC(=O)[C@H](CC(C)C)NC(=O)[C@H](CC(C)C)NC(=O)N2CCCCC2)cc1,300,35.7,40,–
COC(=O)C1CCN(CC(=O)N[C@@H](CC(C)C)C(=O)N[C@@H](CC(C)C)C(=O)N[C@H](C(=O)N2CCC[C@H]2COc2ccc(F)cc2)c2ccccc2)CC1,> 100000,–,–,IC50 (Plasmodium falciparum [1]): Not Active
CC(C)C[C@H](NC(=O)[C@H](CC(C)C)NC(=O)N1CCOCC1)C(=O)N[C@H](C(=O)N1CCC[C@H]1COc1ccc(F)cc1)c1ccccc1,1100,0.9,168,selectivity ratio [7]: 150; Activity (Plasmodium falciparum [2]): Active; EC50 (Plasmodium falciparum [4]): 7500 nM; Ratio EC50 (Plasmodium falciparum [8]): 8; EC50 (Plasmodium falciparum [5]): 12.1 µM; Ratio EC50 (Plasmodium falciparum [9]): 8; Activity (Plasmodium falciparum [6]): Active
CC(C)C[C@H](NC(=O)CN1CCC(O)CC1)C(=O)N[C@@H](CC(C)C)C(=O)N[C@@H](Cc1c[nH]c2ccccc12)C(=O)N1CCC[C@H]1COc1ccc(F)cc1,2530,16.7,–,–
CC(C)C[C@H](NC(=O)N1CCOCC1)c1nc(C(=O)N[C@@H](Cc2ccccc2)C(=O)N2CCC[C@H]2COc2ccc(F)cc2)co1,8600,–,–,IC50 (Plasmodium falciparum [1]): Not Active
CC(C)C[C@H](NC(=O)[C@H](CC(C)C)NC(=O)N1CCCCC1)C(=O)N[C@H](C(=O)N1CCC[C@H]1COc1ccc(F)cc1)c1ccccc1,1300,–,–,IC50 (Plasmodium falciparum [1]): Not Active
CC(C)C[C@H](NC(=O)CN1CCN(C)CC1)C(=O)N[C@@H](CC(C)C)C(=O)N[C@H](C(=O)N1CCC[C@H]1COc1ccc(F)cc1)c1ccccc1,> 10000,–,–,IC50 (Plasmodium falciparum [1]): Not Active
CC(C)C[C@H](NC(=O)CN1CCN(C)CC1)C(=O)N[C@@H](CC(C)C)C(=O)N[C@@H](Cc1c[nH]c2ccccc12)C(=O)N1CCN=C1COc1ccc(F)cc1,10600,17.5,–,–
CC(C)C[C@H](NC(=O)CN1CCN(C)CC1)C(=O)N[C@@H](CC(C)C)C(=O)N[C@@H](Cc1c[nH]c2ccccc12)C(=O)N1CCC[C@H]1COc1ccc(F)cc1,7490,–,–,IC50 (Plasmodium falciparum [1]): Not Active
CC(C)C[C@H](NC(=O)[C@H](CC(C)C)NC(=O)N1CCOCC1)C(=O)N[C@@H](Cc1ccccc1)C(=O)N1CCC[C@H]1COc1ccc(F)cc1,300,10.2,53,–
CC(C)C[C@H](NC(=O)[C@H](CC(C)C)NC(=O)N1CCOCC1)C(=O)N[C@@H](Cc1c[nH]c2ccccc12)C(=O)N1CCC[C@H]1COc1ccc(F)cc1,400,10,–,–
CC(C)C[C@H](NC(=O)[C@H](CC(C)C)NC(=O)N1CCOCC1)C(=O)N[C@H](C(=O)N1CCN=C1COc1ccc(F)cc1)c1ccccc1,7000,> 5,–,–
CC(C)C[C@H](NC(=O)c1ccco1)C(=O)N[C@@H](CC(C)C)C(=O)N[C@@H](Cc1ccccc1)C(=O)NNc1ccccc1,600,27.9,114,–
COC(=O)C1CCN(CC(=O)N[C@@H](CC(C)C)C(=O)N[C@@H](CC(C)C)C(=O)N[C@@H](Cc2c[nH]c3ccccc23)C(=O)N2CCC[C@H]2COc2ccc(F)cc2)CC1,4600,6.7,> 500,–
CC(C)C[C@H](NC(=O)[C@H](CC(C)C)NC(=O)N1CCCCC1)C(=O)N[C@@H](Cc1c[nH]c2ccccc12)C(=O)N1CCN=C1COc1ccc(F)cc1,200,5.5,> 468,Activity (Plasmodium falciparum [2]): Active; Ratio EC50 (Plasmodium falciparum [3]): 3; EC50 (Plasmodium falciparum [4]): 1700 nM; EC50 (Plasmodium falciparum [5]): 6.6 µM; Activity (Plasmodium falciparum [6]): Active; Activity (Plasmodium falciparum [10]): Active; Activity (Plasmodium falciparum [11]): Active
